# Assay results from the NIST ThermoML archive (doi:10.1016/j.jct.2016.02.027).
# ± gives the expanded uncertainty stated by the source.
# Key:
# [1] = 298.15 K; 101.33 kPa; Liquid; Vibrating tube method
# [2] = xn = mol fraction of the nth substance listed; conditions: 298.15 K, 101.3 kPa, Liquid, Vibrating tube method
compound,measurement,setting,value
CCCC[N+]1(C)CCCC1.O=S(=O)([N-]S(=O)(=O)C(F)(F)F)C(F)(F)F,mass density,[1],1394.68 ± 6 kg/m3
CCCC[N+]1(C)CCCC1.O=S(=O)([N-]S(=O)(=O)C(F)(F)F)C(F)(F)F + CCCCCCCC,mass density,[2]; x2 = 0.042,1384.07 ± 4.5 kg/m3
CCCC[N+]1(C)CCCC1.O=S(=O)([N-]S(=O)(=O)C(F)(F)F)C(F)(F)F + CCCCCCCCCC,mass density,[2]; x2 = 0.023,1387.66 ± 4.5 kg/m3
CCCC[N+]1(C)CCCC1.O=S(=O)([N-]S(=O)(=O)C(F)(F)F)C(F)(F)F + c1ccccc1,mass density,[2]; x2 = 0.81,1117.76 ± 4.3 kg/m3
same,mass density,[2]; x2 = 0.811,1118.57 ± 4.3 kg/m3
